PMC4405350, “From Broad-Spectrum Biocides to Quorum Sensing Disruptors and Mussel Repellents: Antifouling Profile of Alkyl Triphenylphosphonium Salts” (PLoS ONE, 2015)
Where two headings read alike, the source gives them in different places.

What was measured:
Type in all cases: cell-based
[1] = system: Gayralia oxysperma spores; assay: Macroalgal spore germination inhibition; conditions: 6 days, 19±1 °C
Experimental: (§1) All the biological assays were run by triplicate. […] For the active products, serial dilutions were performed to calculate the half-maximal inhibitory concentrations (IC50) or the minimal inhibitory concentrations (MIC). Unless otherwise stated, the test concentrations were 100, 50, 25, 10, 5, 2.5, 1, 0.5 and 0.1 μM. Dose-response curves were adjusted with GraphPad Prism 5 software using a four-parameter non-linear regression model.
To evaluate the effect of the phosphonium salts on the germination of macroalgal spores, Gayralia oxysperma (Kützing) K.L.Vinogradova was selected as model organism. G. oxysperma (Ulotrichales, Chlorophyta) is a cosmopolitan member of the Ulvophyceae. Unlike Ulva species, which produce biflagellate male and female gametes, as well as quadriflagellate spores, G. oxysperma only produces biflagellate spores. This is an advantage as bioassays can be conducted straightforwardly without the need to distinguish between gamete-producing and zoospore-producing plants. […] Fresh fertile fragments were selected and placed in Petri dishes. Spores were then released in Von Stosch Solution (VSS) by the osmotic method. Bioassays were conducted in flat-bottom 96-well plates as described by Chambers and co-workers, with slight modifications. Each well was filled with 50 μl of the appropriate dilution of the products in VSS to which 50 μl of spore inoculum (ca. 2 x 10^5 spores ml^-1) were added. Plates were incubated at 19±1 °C for 6 days. After the incubation time, the bottom of each well was examined for the presence of germinated spores with an inverted microscope. A spore was considered as germinated when the germ tube was visible. The MIC was recorded as the lowest concentration inhibiting spore germination.

[2] = system: Alternaria sp.; assay: Marine-derived fungi growth inhibition (OD405); conditions: Alternaria, 120 h, read-out: IC50 Alternaria sp.
Experimental: as §1
(§2) Three strains of marine-derived fungi were kindly provided by Dr. Á. Trigos (University of Veracruz, Mexico). The strains were isolated from reef organisms collected from the Veracruz Reef System and identified as Aspergillus sp., Fusarium sp. and Alternaria sp..
(§3) Fungal strains were cultured in Potato-Dextrose Agar (PDA) supplemented with filtered seawater (FSW) (50% v/v) at 26 °C for 5 days prior to experiments. […] Briefly, fungal inocula were prepared by addition of 5 ml of sterile saline solution to the cultures. Gently swabbing released conidia. […] The plates were incubated for 5 days at 26 °C. The calculation of the half-maximal inhibitory concentrations (IC50) was performed using OD405 as endpoint.

[3] = system: Aspergillus sp.; assay: Marine-derived fungi growth inhibition (OD405); conditions: Aspergillus, 120 h, read-out: IC50 Aspergillus sp.
Experimental: as §1, §2, §3

[4] = system: Vibrio alginolyticus CECT 521; assay: Marine bacteria growth inhibition (broth microdilution, OD625); conditions: Vibrio alginolyticus, read-out: IC50 V. alginolyticus
Experimental: as §1
(§4) Growth inhibition was assessed in Marine Broth (Conda) according to CLSI guidelines for broth microdilution susceptibility testing. The incubation time was 24 h and the incubation temperature was 30 °C.

[5] = system: Cobetia marina CECT 4278; assay: as above; conditions: Cobetia marina, read-out: IC50 C. marina
Experimental: as §1, §4

[6] = system: Vibrio anguillarum CECT 4347; assay: as above; conditions: Vibrio anguillarum, read-out: IC50 V. anguillarum
Experimental: as §1, §4

[7] = system: Shewanella algae CECT 5021; assay: as above; conditions: Shewanella algae, read-out: IC50 S. algae
Experimental: as §1, §4

[8] = system: Pseudoalteromonas atlantica CECT 579; assay: as above; conditions: Pseudoalteromonas atlantica, read-out: IC50 P. atlantica
Experimental: as §1, §4

[9] = system: Cellulophaga lytica CECT 5014; assay: as above; conditions: Cellulophaga lytica, read-out: IC50 C. lytica
Experimental: as §1, §4

[10] = system: Cylindrotheca sp.; assay: Benthic diatom growth inhibition (chlorophyll-a); conditions: 120 h, read-out: IC50 Cylindrotheca sp.
Experimental: as §1
(§5) Five strains of benthic diatoms, Nitszchia sp. […] The Nitzschia and Navicula strains were purchased from the Spanish Bank of Algae (Marine Biotechnology Center, University of Las Palmas de Gran Canaria). The other three strains were kindly provided by Dr. G. Courtois (University of Las Palmas de Gran Canaria). Diatoms were cultured at 19±1 °C in Erlenmeyer flaks (250 ml) containing 150 ml of Guillard’s F/2 medium, and subjected to a photoperiod of 18:6. Tests were run in 48-well plates. Inocula were prepared by adjusting diatom concentration to 2–4 × 10^6 cells ml^-1 using a Neubauer chamber. Test products were dissolved in F/2 medium (500 μl) to which diatom inocula (500 μl) were added. Thus, the final assay volume was 1 ml and the starting cell densities were ca. 1–2 x 10^6 diatoms ml^-1. Plates were incubated under the abovementioned conditions for 5 days and then chlorophyll-a (Chla) was quantified.
(§6) In order to extract Chla, the content of each well was transferred to a microcentrifuge tube and centrifuged at 10,000 rpm for 10 min. The supernatants were discarded and 200 μl of DMSO were added to the pellets. The tubes were incubated at 65 °C for 2 h in total darkness and vortexed every 30 min. Then, the content of each tube was transferred to a 96-well plate and the amount of Chla was determined spectrophotometrically. Path length correction factor for the DMSO extracts was determined.

[11] = system: Navicula cf. salinicola BEA 0055; assay: Benthic diatom growth inhibition (chlorophyll-a); conditions: 120 h, read-out: IC50 Navicula cf. salinicola
Experimental: as §1, §5, §6

[12] = system: Amphora sp.; assay: Benthic diatom growth inhibition (chlorophyll-a); conditions: 120 h, read-out: IC50 Amphora sp.
Experimental: as §1, §5, §6

[13] = system: Phaeodactylum tricornutum; assay: Benthic diatom growth inhibition (chlorophyll-a); conditions: Phaeodactylum tricornutum, 120 h, read-out: IC50 P. tricornutum
Experimental: as §1, §5, §6

[14] = system: Nitzschia sp.; assay: Benthic diatom growth inhibition (chlorophyll-a); conditions: 120 h, read-out: IC50 Nitzschia sp.
Experimental: as §1, §5, §6

[15] = growth inhibition, 5 days, 26 °C
[16] = CECT521, growth inhibition, 24 h, 30 °C, three replicates
[17] = CECT4278, growth inhibition, 24 h, 30 °C, three replicates
[18] = CECT4347, growth inhibition, 24 h, 30 °C, three replicates
[19] = CECT5021, growth inhibition, 24 h, 30 °C, three replicates
[20] = CECT579, growth inhibition, 24 h, 30 °C, three replicates
[21] = CECT5014, growth inhibition, 24 h, 30 °C, three replicates

Row | SMILES | MIC G. oxysperma (lowest concentration inhibiting spore germination) [1] [µM] | IC50 [2, 15] [µM] | IC50 [3, 15] [µM] | IC50 [4, 16] [µM] | IC50 [5, 17] [µM] | IC50 [6, 18] [µM] | IC50 [7, 19] [µM] | IC50 [8, 20] [µM] | IC50 [9, 21] [µM] | IC50 ([10]; growth, 5 days, chlorophyll-a) [µM] | IC50 ([11]; growth, 5 days, chlorophyll-a) [µM] | IC50 ([12]; growth, 5 days, chlorophyll-a) [µM] | IC50 ([13]; growth, 5 days, chlorophyll-a) [µM] | IC50 ([14]; growth, 5 days, chlorophyll-a) [µM] | also measured
1 | CCCCCCC[P+](c1ccccc1)(c1ccccc1)c1ccccc1 [Compound 8, heptyl triphenylphosphonium bromide] | 100 | 12 | 12.4 | > 100 | > 100 | > 100 | > 100 | 28.6 | 20 | 10.6 | 6.4 | 37.6 | 92.2 | 20.8 | 
2 | CCCCCCCCCCCCC[P+](c1ccccc1)(c1ccccc1)c1ccccc1 [Compound 13] | 50 | 1.6 | 4.8 | 11.3 | 5 | 5.7 | 3.6 | 1.2 | 1.7 | 1.7 | 1.8 | 4.5 | 1 | 2.2 | 
3 | C/C=C/C[P+](c1ccccc1)(c1ccccc1)c1ccccc1 [Compound 3] | >100 | > 100 | > 100 | > 100 | > 100 | > 100 | > 100 | 9.5 | 73.2 | > 100 | 62.2 | > 100 | > 100 | > 100 | 
4 | CCCCCCCCCCCCCCC[P+](c1ccccc1)(c1ccccc1)c1ccccc1 [Compound 15] | 50 | 2.9 | 5.2 | 5.6 | 5.5 | 2.7 | 3.8 | 2.9 | 1.9 | 2.2 | 2.8 | 3.1 | 1.1 | 3.6 | 
5 | CCCCCCCCCC[P+](c1ccccc1)(c1ccccc1)c1ccccc1 [Compound 10] | 50 | 5.2 | 11.7 | 35.5 | 8 | 18.3 | 10.4 | 5.2 | 2.6 | 1 | 2.3 | 3.2 | 1.9 | 2.5 | 
6 | CCCCCCCCCCCCCCCC[P+](c1ccccc1)(c1ccccc1)c1ccccc1 [Compound 16] | 50 | 1.4 | 5.2 | 16.9 | 9.9 | 5.3 | 5.4 | 6.8 | 1.5 | 4.7 | 1.3 | 2.6 | 1.3 | 4.9 | 
7 | CCCCCCCCCCCC[P+](c1ccccc1)(c1ccccc1)c1ccccc1 [Compound 12] | 50 |  |  |  |  |  |  |  |  |  |  |  |  |  | IC50 [2]: 1.2 µM; IC50 [3]: 7.5 µM; IC50 ([4]; CECT521, 24 h): 26.3 µM; IC50 ([5]; CECT4278, 24 h): 5.1 µM; IC50 ([6]; CECT4347, 24 h): 27.5 µM; IC50 ([7]; CECT5021, 24 h): 3 µM; IC50 ([8]; CECT579, 24 h): 1.1 µM; IC50 ([9]; CECT5014, 24 h): 1.7 µM; IC50 [10]: 1 µM; IC50 [11]: 1.3 µM; IC50 [12]: 4.8 µM; IC50 [13]: 1.2 µM; IC50 [14]: 2.2 µM
8 | CCCCC[P+](c1ccccc1)(c1ccccc1)c1ccccc1 [Compound 7] | >100 | > 100 | > 100 | > 100 | > 100 | > 100 | > 100 | > 100 | > 100 | > 100 | > 100 | > 100 | > 100 | > 100 | 
